Test results reported in patent publication US6737383B1, “Herbicidal oxadiazolidines” (priority 1999, dated 2004).

How the values were obtained:
rape = experiment: Test B pre/postemergence rape; assay type: in vivo, Brassica napus
Method in brief: (§1)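 Test chemicals in a non-phytotoxic solvent mixture with surfactant were sprayed preemergence onto planted seeds and postemergence onto plants 2 to 18 cm tall (1- to 4-leaf stage). After twelve to sixteen days in a greenhouse, injury was visually rated against untreated controls from 0 (no effect) to 10 (complete control).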

duck salad = experiment: Test B flood test duck salad; assay type: in vivo, Heteranthera limosa
Method in brief: (§2)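 Each value is a visual injury score relative to controls, with 10 meaning complete control and 0 no effect. Evaluation took place twelve to sixteen days after the 2-leaf-stage plants were treated and kept in the greenhouse.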

sugar beet = experiment: Test B pre/postemergence sugar beet; assay type: in vivo, Beta vulgaris; details: for Plant response rating, Sugarbeets: Rate 250 g/ha
Method in brief: as §1

smallflower flatsedge = experiment: Test B flood test smallflower flatsedge; assay type: in vivo, Cyperus difformis
Method in brief: as §2

bamyardgrass = experiment: Test B flood test barnyardgrass; assay type: in vivo, Echinochloa crus-galli
Method in brief: as §2

soybean = experiment: Test B pre/postemergence soybean; assay type: in vivo, Glycine max
Method in brief: as §1

morningglory = experiment: Test B pre/postemergence morningglory; assay type: in vivo, Ipomoea hederacea
Method in brief: as §1

surinam grass = experiment: Test B pre/postemergence surinam grass; assay type: in vivo, Brachiaria decumbens
Method in brief: as §1

cocklebur = experiment: Test B pre/postemergence cocklebur; assay type: in vivo, Xanthium strumarium
Method in brief: as §1

wild oat = experiment: Test B pre/postemergence wild oat; assay type: in vivo, Avena fatua; details: for Plant response rating, Wild oats: Rate 250 g/ha
Method in brief: as §1

purple nutsedge = experiment: Test B pre/postemergence purple nutsedge; assay type: in vivo, Cyperus rotundus
Method in brief: as §1

pigweed = experiment: Test B pre/postemergence pigweed; assay type: in vivo, Amaranthus retroflexus
Method in brief: as §1

giant foxtail = experiment: Test B pre/postemergence giant foxtail; assay type: in vivo, Setaria faberii
Method in brief: as §1

rice = experiment: Test B flood test rice; assay type: in vivo, Oryza sativa
Method in brief: as §2

crabgrass = experiment: Test B pre/postemergence crabgrass; assay type: in vivo, Digitaria sanguinalis
Method in brief: as §1

corn = experiment: Test B pre/postemergence corn; assay type: in vivo, Zea mays
Method in brief: as §1

[1] = Postemergence, Rate 125 g/ha, scale of 0 to 10 where 0 is no effect and 10 is complete control
[2] = Postemergence, Rate 250 g/ha, scale 0 to 10, 0 no effect, 10 complete control
[3] = Preemergence, Rate 62 g/ha, scale 0 to 10 (0 no effect, 10 complete control)
[4] = Preemergence, Rate 125 g/ha, scale 0 to 10 (0 no effect, 10 complete control)
[5] = Preemergence, Rate 250 g/ha, scale of 0 to 10 where 0 is no effect and 10 is complete control
[6] = Preemergence, Rate 500 g/ha, scale 0 to 10 (0 no effect, 10 complete control)
[7] = Rate 62 g/ha, Postemergence, scale of 0 to 10 where 0 is no effect and 10 is complete control
[8] = Rate 500 g/ha, Postemergence, scale 0 to 10, 0 no effect, 10 complete control
[9] = Postemergence (flood test species), Rate 125 g/ha, scale of 0 to 10 where 0 is no effect and 10 is complete control
[10] = Rate 62 g/ha, Postemergence section, flood test species, scale of 0 to 10 where 0 is no effect and 10 is complete control
[11] = Rate 250 g/ha, headed Pre-emergence (flood test species), scale 0 to 10 (0 no effect, 10 complete control)
[12] = Rate 500 g/ha, headed Pre-emergence (flood test species), scale 0 to 10 (0 no effect, 10 complete control)
[13] = Rate 500 g/ha, listed under Postemergence (flood test species), scale 0 to 10, 0 no effect, 10 complete control
[14] = Rate 1000 g/ha, Pre-emergence (as headed), scale 0 to 10
[15] = Rate 2000 g/ha, Pre-emergence (as headed), scale 0 to 10
[16] = flood test, listed under Postemergence, Rate 250 g/ha, scale 0 to 10, 0 no effect, 10 complete control
[17] = Preemergence, Rate 125 g/ha, 0 is no effect, 10 is complete control
[18] = Preemergence, scale of 0 to 10 where 0 is no effect and 10 is complete control
[19] = Postemergence, scale 0 to 10, 0 is no effect, 10 is complete control
[20] = Rate 250 g/ha, Postemergence (flood test), scale 0 to 10, 0 is no effect, 10 is complete control
[21] = Postemergence, Rate 62 g/ha, scale 0 to 10, 0 is no effect, 10 is complete control
[22] = Rate 250 g/ha, Postemergence, scale 0 to 10, 0 is no effect, 10 is complete control

CC(C)N(C(=O)n1oc(=O)n(C(C)C)c1=O)c1ccccc1 [Compound 113]
Rape plant response rating (rape; [1]): 3
Rape plant response rating (rape; [2]): 7
Rape plant response rating (rape; [3]): 4
Plant response rating, Rape (rape; [4]): 7
Plant response rating, Rape (rape; [5]): 10
Rape plant response rating (rape; [6]): 10
Rape plant response rating (rape; [7]): 0
Rape plant response rating (rape; [8]): 7
Ducksalad plant response rating (duck salad; [9]): 0
Ducksalad plant response rating (duck salad; [10]): 0
Ducksalad plant response rating (duck salad; [11]): 0
Plant response rating, Ducksalad (duck salad; [12]): 0
Ducksalad plant response rating (duck salad; [13]): 0
Ducksalad plant response rating (duck salad; [14]): 1
Ducksalad plant response rating (duck salad; [15]): 8
Ducksalad plant response rating (duck salad; [16]): 0
Sugarbeets plant response rating (sugar beet; [1]): 4
Sugarbeets plant response rating (sugar beet; [3]): 7
Sugarbeets plant response rating (0 to 10 scale) (sugar beet; [17]): 8
Plant response rating, Sugarbeets (sugar beet; [18]): 9
Sugarbeets plant response rating (sugar beet; [6]): 10
Sugarbeets plant response rating (sugar beet; [7]): 4
Plant response rating, Sugarbeets (sugar beet; [19]): 5
Sugarbeets plant response rating (sugar beet; [8]): 6
S. Flatsedge plant response rating (smallflower flatsedge; [9]): 0
S. Flatsedge plant response rating (smallflower flatsedge; Pre-emergence, Rate 1000 g/ha, scale 0 to 10 (0 no effect, 10 complete control)): 0
S. Flatsedge plant response rating (smallflower flatsedge; [10]): 0
Plant response rating, S. Flatsedge (smallflower flatsedge; [20]): 0
S. Flatsedge plant response rating (smallflower flatsedge; [11]): 0
Plant response rating, S. Flatsedge (smallflower flatsedge; [12]): 0
S. Flatsedge plant response rating (smallflower flatsedge; [13]): 0
S. Flatsedge plant response rating (smallflower flatsedge; [15]): 9
Barnyardgrass plant response rating (bamyardgrass; [21]): 0
Barnyardgrass plant response rating (bamyardgrass; Rate 125 g/ha, Postemergence section (flood test species), scale 0 to 10, 0 no effect, 10 complete control): 0
Barnyardgrass plant response rating (bamyardgrass; [11]): 0
Plant response rating, Barnyardgrass (bamyardgrass; [12]): 0
Barnyardgrass plant response rating (bamyardgrass; [13]): 0
Barnyardgrass plant response rating (bamyardgrass; [14]): 0
Barnyardgrass plant response rating (bamyardgrass; Rate 2000 g/ha, Pre-emergence (as headed), scale 0 to 10, 0 no effect, 10 complete control): 9
Barnyardgrass plant response rating (bamyardgrass; [16]): 0
Soybean plant response rating (soybean; [1]): 6
Soybean plant response rating (soybean; [3]): 3
Plant response rating, Soybean (soybean; [4]): 8
Plant response rating, Soybean (soybean; [5]): 9
Soybean plant response rating (soybean; [6]): 9
Soybean plant response rating (soybean; [7]): 6
Plant response rating, Soybean (soybean; [22]): 7
Soybean plant response rating (soybean; [8]): 7
Morningglory plant response rating (morningglory; [1]): 5
Morningglory plant response rating (morningglory; [2]): 8
Morningglory plant response rating (morningglory; [3]): 1
Plant response rating, Morningglory (morningglory; [4]): 2
Plant response rating, Morningglory (morningglory; [5]): 7
Morningglory plant response rating (morningglory; [6]): 8
Morningglory plant response rating (morningglory; [7]): 5
Morningglory plant response rating (morningglory; [8]): 10
B. signalgrass plant response rating (surinam grass; [21]): 4
B. signalgrass plant response rating (surinam grass; [2]): 8
B. signalgrass plant response rating (surinam grass; [3]): 7
Plant response rating, B. signalgrass (surinam grass; [4]): 9
Plant response rating, B. signalgrass (surinam grass; [5]): 10
B. signalgrass plant response rating (surinam grass; [6]): 10
B. signalgrass plant response rating (surinam grass; Rate 125 g/ha, Postemergence, scale 0 to 10, 0 no effect, 10 complete control): 7
B. signalgrass plant response rating (surinam grass; Rate 500 g/ha, Postemergence, scale of 0 to 10 where 0 is no effect and 10 is complete control): 8
Cocklebur plant response rating (cocklebur; [1]): 1
Cocklebur plant response rating (cocklebur; [2]): 1
Cocklebur plant response rating (cocklebur; [3]): 0
Plant response rating, Cocklebur (cocklebur; [4]): 1
Plant response rating, Cocklebur (cocklebur; [5]): 3
Cocklebur plant response rating (cocklebur; [6]): 3
Cocklebur plant response rating (cocklebur; [7]): 1
Cocklebur plant response rating (cocklebur; [8]): 4
Wild oats plant response rating (wild oat; [1]): 2
Wild oats plant response rating (wild oat; [3]): 6
Wild oats plant response rating (0 to 10 scale) (wild oat; [17]): 10
Plant response rating, Wild oats (wild oat; [18]): 10
Wild oats plant response rating (wild oat; [6]): 10
Wild oats plant response rating (wild oat; [7]): 1
Plant response rating, Wild oats (wild oat; [19]): 6
Wild oats plant response rating (wild oat; [8]): 6
Nutsedge plant response rating (purple nutsedge; [1]): 0
Nutsedge plant response rating (purple nutsedge; [2]): 0
Nutsedge plant response rating (purple nutsedge; [3]): 0
Plant response rating, Nutsedge (purple nutsedge; [4]): 0
Plant response rating, Nutsedge (purple nutsedge; [5]): 0
Nutsedge plant response rating (purple nutsedge; [6]): 0
Nutsedge plant response rating (purple nutsedge; [7]): 0
Nutsedge plant response rating (purple nutsedge; [8]): 2
Redroot pigweed plant response rating (pigweed; [1]): 4
Redroot pigweed plant response rating (pigweed; [3]): 8
Plant response rating, Redroot pigweed (pigweed; [4]): 8
Plant response rating, Redroot pigweed (pigweed; [5]): 10
Redroot pigweed plant response rating (pigweed; [6]): 10
Redroot pigweed plant response rating (pigweed; [7]): 3
Plant response rating, Redroot pigweed (pigweed; [22]): 6
Redroot pigweed plant response rating (pigweed; [8]): 7
Giant foxtail plant response rating (giant foxtail; [1]): 9
Giant foxtail plant response rating (giant foxtail; [2]): 9
Giant foxtail plant response rating (giant foxtail; [3]): 9
Plant response rating, Giant foxtail (giant foxtail; [4]): 10
Plant response rating, Giant foxtail (giant foxtail; [5]): 10
Giant foxtail plant response rating (giant foxtail; [6]): 10
Giant foxtail plant response rating (giant foxtail; [7]): 9
Giant foxtail plant response rating (giant foxtail; [8]): 9
Rice plant response rating (rice; [9]): 0
Rice plant response rating (rice; [10]): 0
Plant response rating, Rice (rice; [20]): 0
Rice plant response rating (rice; [11]): 0
Plant response rating, Rice (rice; [12]): 0
Rice plant response rating (rice; [13]): 0
Rice plant response rating (rice; [14]): 0
Rice plant response rating (rice; [15]): 7
Crabgrass plant response rating (crabgrass; [1]): 9
Crabgrass plant response rating (crabgrass; [2]): 9
Crabgrass plant response rating (crabgrass; [3]): 7
Plant response rating, Crabgrass (crabgrass; [4]): 10
Plant response rating, Crabgrass (crabgrass; [5]): 10
Crabgrass plant response rating (crabgrass; [6]): 10
Crabgrass plant response rating (crabgrass; [7]): 9
Crabgrass plant response rating (crabgrass; [8]): 9
Corn plant response rating (corn; [1]): 1
Corn plant response rating (corn; [2]): 5
Corn plant response rating (corn; [3]): 3
Plant response rating, Corn (corn; [4]): 4
Plant response rating, Corn (corn; [5]): 8
Corn plant response rating (corn; [6]): 10
Corn plant response rating (corn; [7]): 0
Corn plant response rating (corn; [8]): 6
